The target in assay [1] is T1, E3 ubiquitin-protein ligase XIAP (Homo sapiens, UniProt P98170). The assay is described as follows: XIAP antagonists, biochemical, IAP family, fluorescence polarization (AID 1018). The class given is functional. For orientation: Polarisation of emitted light reports the rotation of a fluorescent probe.
The target of assay [2] is T1, E3 ubiquitin-protein ligase XIAP. The assay is described as follows: Counter Screen using XIAP-Bir3 for Chemical Antagonists of Bir1/2 domains of IAP-family anti-apoptotic proteins. [Related pubchem assays (depositor defined):AID1018, AID1449, AID1514, AID1638, AID1749, AID1750, AID488957, AID488963]. Background: The purpose of a counterscreen is to sort out artefacts and off-target activity.

Assay [3] deals with T2, G-protein coupled receptor 35 (Homo sapiens, UniProt Q9HC97). Description: SAR analysis of Agonists of the GPR35 Receptor using an Image-Based Assay - Set 3. [Related pubchem assays (depositor defined):AID1961, AID1965]. The class given is functional.
Assay [4] deals with T3, Cannabinoid receptor 1 (Homo sapiens, UniProt P21554). Description: SAR analysis of agonists of the Cannabinoid Receptor 1 using an Image-Based Assay - Set 3. [Related pubchem assays (depositor defined):AID1961, AID1965]. The class given is functional.
Assay [5] concerns the target G-protein coupled receptor 55 (Homo sapiens, UniProt Q9Y2T6). The assay is described as follows: SAR analysis of selective Agonists of GPR55 using an Image-Based Assay - Set 2. [Related pubchem assays (depositor defined):AID1961, AID1965]. Format: functional.
For assay [6], the target named is T3, Cannabinoid receptor 1. Description: SAR analysis of antagonists of the Cannabinoid Receptor 1 using an Image-Based Assay - Set 3. [Related pubchem assays (depositor defined):AID1961, AID1965]. The class given is functional.
Assay [7] addresses T4, Cannabinoid receptor 2 (Homo sapiens, UniProt P34972). Description: SAR analysis of antagonists of the Cannabinoid Receptor 2 using an Image-Based Assay - Set 2. [Related pubchem assays (depositor defined):AID1961, AID1965]. Format: functional.
Assay [8] concerns the target T2, G-protein coupled receptor 35. The assay is described as follows: SAR analysis of Antagonists of the GPR35 Receptor using an Image-Based Assay - Set 4. [Related pubchem assays (depositor defined):[…]]. The class given is functional.
Assay [9] has as its target T4, Cannabinoid receptor 2. The assay is described as follows: SAR analysis of agonists of the Cannabinoid Receptor 2 using an Image-Based Assay - Set 2. [Related pubchem assays (depositor defined):AID1961, AID1965]. Format: functional.
Assay [10] deals with Vibrio harveyi. The assay is described as follows: inhibitors of AI-2 quorum sensing in V. harveyi, dose response, LuxS, LuxPQ, dry powder, set 2 (AID 493072). The class given is functional, organism-based.
Assay [11] concerns Vibrio harveyi. The assay is described as follows: Quorum Sensing, LuxS, LuxPQ Measured in Microorganism System Using Plate Reader - 2035-01_Inhibitor_DoseNoFile_DryPowder_Activity. [Related pubchem assays (depositor defined):AID2106]. Format: functional, organism-based.
Assay [12] has as its target T5, Voltage-gated N-type calcium channel alpha-1B subunit/Amyloid beta A4 precursor protein-binding family A member 1 (Homo sapiens, UniProt Q00975+Q02410). The class given is protein assay.
The target of assay [13] is Glucose-6-phosphate 1-dehydrogenase (Homo sapiens, UniProt P11413). Description: human G6PD enzyme inhibitors, dose response, selectivity assay for P. falciparum G6PD inhibitor project, biochemical, fluorescence (AID 504792). Format: functional.
Assay [14] can be described thus: A cytotoxicity screen of small molecule inhibitors of the PhoP region in Salmonella typhi identified in the primary screen. [Related pubchem assays: 1850, 1864, 1985 ]. The class given is functional.
Assay [15] addresses T5, Voltage-gated N-type calcium channel alpha-1B subunit/Amyloid beta A4 precursor protein-binding family A member 1. The class given is protein assay. The source holds these as a separate data set.
The target in assay [16] is Dual specificity protein phosphatase 3 (Homo sapiens, UniProt P51452). Description: SAR VHR1 Fluorescent Assay for In Vitro dose response studies Set 2. [Related pubchem assays (depositor defined):AID1654, AID1661, AID1878]. Format: functional.
The target of assay [17] is T6, Tyrosine-protein phosphatase non-receptor type 7 (Homo sapiens, UniProt P35236).
T6 sequence (P35236 whole entry): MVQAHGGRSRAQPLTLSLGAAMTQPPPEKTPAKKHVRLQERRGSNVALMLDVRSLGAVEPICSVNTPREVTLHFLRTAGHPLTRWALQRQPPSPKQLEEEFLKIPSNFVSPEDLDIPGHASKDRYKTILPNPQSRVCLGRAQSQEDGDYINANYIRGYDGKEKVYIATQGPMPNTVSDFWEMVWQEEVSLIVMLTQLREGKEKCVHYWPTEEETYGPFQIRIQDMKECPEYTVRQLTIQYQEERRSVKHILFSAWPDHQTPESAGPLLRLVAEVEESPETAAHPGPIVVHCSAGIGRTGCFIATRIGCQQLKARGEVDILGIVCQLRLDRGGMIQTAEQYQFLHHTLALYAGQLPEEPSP
Description: SAR analysis of chemical inhibitors of HePTP using a Fluorescent assay - Set 2. [Related pubchem assays (depositor defined):AID1059, AID1077, AID1661, AID2085, AID521]. Format: functional.

For the next assay, the target named is Mucolipin-3 (Homo sapiens, UniProt Q8TDD5). Description: Fluorescence counterscreen assay for […] agonists: dose response cell-based high-throughput screening assay to identify agonists of the transient receptor potential channel ML3 (TRPML3). [Related pubchem assays: 1424, 1448 ]. The class given is functional.
A further assay concerns the target Ion channel NompC (Danio rerio, UniProt Q7T1G6). Description: Dose response cell-based high-throughput screening assay for agonists of the transient receptor potential channel N1 (TRPN1). [Related pubchem assays (depositor defined):AID1424, AID1448]. The class given is functional.
Assay [18] concerns HEK293. Description: NOD2 signaling inhibitors in MDP-stimulated cells, cell-based, uHTS, luminescence (AID 2001). The conditions noted are these: Homo sapiens. The class given is functional.
In assay [19] the target is T7, Calpain-2 catalytic subunit (Sus scrofa, UniProt P43367).
T7 sequence (P43367 whole entry): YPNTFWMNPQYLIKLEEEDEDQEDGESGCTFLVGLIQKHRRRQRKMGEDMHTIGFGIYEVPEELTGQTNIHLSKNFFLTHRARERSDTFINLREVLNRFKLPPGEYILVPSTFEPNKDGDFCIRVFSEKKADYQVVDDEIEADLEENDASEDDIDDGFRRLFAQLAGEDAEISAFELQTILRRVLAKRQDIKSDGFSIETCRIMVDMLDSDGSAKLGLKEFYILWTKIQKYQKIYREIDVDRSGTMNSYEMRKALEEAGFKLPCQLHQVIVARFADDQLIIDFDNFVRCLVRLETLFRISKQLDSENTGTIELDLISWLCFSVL
Description: pig calpain II inhibitor potency, dose response, biochemical, fluorogenic peptide substrate (AID 1420). Format: functional.

Assay [20] in a line: cytotoxicity toward NIH3T3 fibroblasts, dose response, counter-screen, cell-based, ATP luminescence, mouse fibroblasts (AID 2010).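 Note: cells exposed to compound for about 90 hours before reading.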 The class given is functional.
Assay [21] deals with HEK293. Description: NOD1 signaling inhibitors, primary screen, cell-based, luminescence, uHTS (AID 1578). The class given is functional. The conditions noted are these: Homo sapiens.
Assay [22] can be described thus: inhibitors of intracellular T. cruzi replication, confirmation, NIH3T3 host cells, beta-gal luminescence (AID 2044).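 Note: intracellular parasites grown in NIH/3T3 mouse fibroblasts as host cells; luminescent beta-galactosidase reporter signal from transgenic T. cruzi replicating inside host cells; inhibitors lower the luminescence signal.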 The class given is functional, cell-based.
Assay [23] relates to HEK293. The assay is described as follows: cells. Format: functional, cell-based. As to conditions: Homo sapiens.
Assay [24] has as its system HEK293. Description: cells. The class given is functional, cell-based. The conditions noted are these: Homo sapiens. This is another data set of the same source.

Calls of active or inactive are those of the source.

The source of these data is ChEMBL document CHEMBL1201862, “PubChem BioAssay data set” (2004).

As usually defined, the IC50 is the concentration that inhibits the measured activity by half. The term EC50 denotes the concentration giving half of the maximal effect. By AC50 is commonly meant the concentration giving half of the maximal activity seen.

T1 sequence (P98170 whole entry): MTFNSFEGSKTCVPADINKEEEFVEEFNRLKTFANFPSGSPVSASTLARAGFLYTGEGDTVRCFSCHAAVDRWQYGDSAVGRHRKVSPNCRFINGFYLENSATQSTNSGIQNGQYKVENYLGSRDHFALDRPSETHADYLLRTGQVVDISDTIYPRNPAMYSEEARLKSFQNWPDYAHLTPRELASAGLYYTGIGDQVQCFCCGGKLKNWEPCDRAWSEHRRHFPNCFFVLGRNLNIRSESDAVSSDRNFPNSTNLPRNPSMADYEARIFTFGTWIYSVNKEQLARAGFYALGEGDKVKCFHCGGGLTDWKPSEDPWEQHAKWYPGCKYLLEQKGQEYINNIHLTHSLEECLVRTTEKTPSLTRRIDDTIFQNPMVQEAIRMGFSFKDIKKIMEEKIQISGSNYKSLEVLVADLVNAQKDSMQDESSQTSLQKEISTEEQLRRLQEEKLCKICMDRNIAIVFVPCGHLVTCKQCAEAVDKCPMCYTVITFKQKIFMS
T2 sequence (Q9HC97 whole entry): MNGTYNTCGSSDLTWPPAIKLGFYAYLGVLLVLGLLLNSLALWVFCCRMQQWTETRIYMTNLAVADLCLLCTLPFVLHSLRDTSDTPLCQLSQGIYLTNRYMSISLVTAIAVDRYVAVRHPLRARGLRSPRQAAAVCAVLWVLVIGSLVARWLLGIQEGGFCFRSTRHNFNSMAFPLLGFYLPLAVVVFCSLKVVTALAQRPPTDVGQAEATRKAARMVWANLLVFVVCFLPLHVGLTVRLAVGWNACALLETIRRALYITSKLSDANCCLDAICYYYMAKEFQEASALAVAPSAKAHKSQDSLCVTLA
T3 sequence (P21554 whole entry): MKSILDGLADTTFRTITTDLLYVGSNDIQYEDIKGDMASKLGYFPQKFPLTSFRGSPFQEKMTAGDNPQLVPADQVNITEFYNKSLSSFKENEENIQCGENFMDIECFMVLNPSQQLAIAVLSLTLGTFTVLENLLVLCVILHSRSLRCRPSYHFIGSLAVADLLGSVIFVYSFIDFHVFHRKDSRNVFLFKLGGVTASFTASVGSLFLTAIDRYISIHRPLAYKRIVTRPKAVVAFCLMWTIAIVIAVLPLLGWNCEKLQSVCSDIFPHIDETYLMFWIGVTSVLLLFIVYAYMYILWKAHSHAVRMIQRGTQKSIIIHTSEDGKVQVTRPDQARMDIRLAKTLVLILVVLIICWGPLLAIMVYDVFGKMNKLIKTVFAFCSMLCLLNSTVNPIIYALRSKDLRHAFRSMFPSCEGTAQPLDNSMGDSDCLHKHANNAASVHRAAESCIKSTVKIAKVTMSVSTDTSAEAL
T4 sequence (P34972 whole entry): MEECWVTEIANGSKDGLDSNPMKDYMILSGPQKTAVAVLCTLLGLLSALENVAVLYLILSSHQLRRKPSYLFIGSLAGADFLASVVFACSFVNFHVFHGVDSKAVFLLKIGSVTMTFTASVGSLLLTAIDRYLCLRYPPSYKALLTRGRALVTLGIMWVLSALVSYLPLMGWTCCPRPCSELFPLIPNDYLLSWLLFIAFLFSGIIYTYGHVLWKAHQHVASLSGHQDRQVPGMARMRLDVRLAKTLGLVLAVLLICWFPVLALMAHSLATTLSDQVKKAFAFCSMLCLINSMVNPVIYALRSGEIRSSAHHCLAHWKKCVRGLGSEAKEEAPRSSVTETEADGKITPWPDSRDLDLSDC
T5 sequence (Q00975 whole entry): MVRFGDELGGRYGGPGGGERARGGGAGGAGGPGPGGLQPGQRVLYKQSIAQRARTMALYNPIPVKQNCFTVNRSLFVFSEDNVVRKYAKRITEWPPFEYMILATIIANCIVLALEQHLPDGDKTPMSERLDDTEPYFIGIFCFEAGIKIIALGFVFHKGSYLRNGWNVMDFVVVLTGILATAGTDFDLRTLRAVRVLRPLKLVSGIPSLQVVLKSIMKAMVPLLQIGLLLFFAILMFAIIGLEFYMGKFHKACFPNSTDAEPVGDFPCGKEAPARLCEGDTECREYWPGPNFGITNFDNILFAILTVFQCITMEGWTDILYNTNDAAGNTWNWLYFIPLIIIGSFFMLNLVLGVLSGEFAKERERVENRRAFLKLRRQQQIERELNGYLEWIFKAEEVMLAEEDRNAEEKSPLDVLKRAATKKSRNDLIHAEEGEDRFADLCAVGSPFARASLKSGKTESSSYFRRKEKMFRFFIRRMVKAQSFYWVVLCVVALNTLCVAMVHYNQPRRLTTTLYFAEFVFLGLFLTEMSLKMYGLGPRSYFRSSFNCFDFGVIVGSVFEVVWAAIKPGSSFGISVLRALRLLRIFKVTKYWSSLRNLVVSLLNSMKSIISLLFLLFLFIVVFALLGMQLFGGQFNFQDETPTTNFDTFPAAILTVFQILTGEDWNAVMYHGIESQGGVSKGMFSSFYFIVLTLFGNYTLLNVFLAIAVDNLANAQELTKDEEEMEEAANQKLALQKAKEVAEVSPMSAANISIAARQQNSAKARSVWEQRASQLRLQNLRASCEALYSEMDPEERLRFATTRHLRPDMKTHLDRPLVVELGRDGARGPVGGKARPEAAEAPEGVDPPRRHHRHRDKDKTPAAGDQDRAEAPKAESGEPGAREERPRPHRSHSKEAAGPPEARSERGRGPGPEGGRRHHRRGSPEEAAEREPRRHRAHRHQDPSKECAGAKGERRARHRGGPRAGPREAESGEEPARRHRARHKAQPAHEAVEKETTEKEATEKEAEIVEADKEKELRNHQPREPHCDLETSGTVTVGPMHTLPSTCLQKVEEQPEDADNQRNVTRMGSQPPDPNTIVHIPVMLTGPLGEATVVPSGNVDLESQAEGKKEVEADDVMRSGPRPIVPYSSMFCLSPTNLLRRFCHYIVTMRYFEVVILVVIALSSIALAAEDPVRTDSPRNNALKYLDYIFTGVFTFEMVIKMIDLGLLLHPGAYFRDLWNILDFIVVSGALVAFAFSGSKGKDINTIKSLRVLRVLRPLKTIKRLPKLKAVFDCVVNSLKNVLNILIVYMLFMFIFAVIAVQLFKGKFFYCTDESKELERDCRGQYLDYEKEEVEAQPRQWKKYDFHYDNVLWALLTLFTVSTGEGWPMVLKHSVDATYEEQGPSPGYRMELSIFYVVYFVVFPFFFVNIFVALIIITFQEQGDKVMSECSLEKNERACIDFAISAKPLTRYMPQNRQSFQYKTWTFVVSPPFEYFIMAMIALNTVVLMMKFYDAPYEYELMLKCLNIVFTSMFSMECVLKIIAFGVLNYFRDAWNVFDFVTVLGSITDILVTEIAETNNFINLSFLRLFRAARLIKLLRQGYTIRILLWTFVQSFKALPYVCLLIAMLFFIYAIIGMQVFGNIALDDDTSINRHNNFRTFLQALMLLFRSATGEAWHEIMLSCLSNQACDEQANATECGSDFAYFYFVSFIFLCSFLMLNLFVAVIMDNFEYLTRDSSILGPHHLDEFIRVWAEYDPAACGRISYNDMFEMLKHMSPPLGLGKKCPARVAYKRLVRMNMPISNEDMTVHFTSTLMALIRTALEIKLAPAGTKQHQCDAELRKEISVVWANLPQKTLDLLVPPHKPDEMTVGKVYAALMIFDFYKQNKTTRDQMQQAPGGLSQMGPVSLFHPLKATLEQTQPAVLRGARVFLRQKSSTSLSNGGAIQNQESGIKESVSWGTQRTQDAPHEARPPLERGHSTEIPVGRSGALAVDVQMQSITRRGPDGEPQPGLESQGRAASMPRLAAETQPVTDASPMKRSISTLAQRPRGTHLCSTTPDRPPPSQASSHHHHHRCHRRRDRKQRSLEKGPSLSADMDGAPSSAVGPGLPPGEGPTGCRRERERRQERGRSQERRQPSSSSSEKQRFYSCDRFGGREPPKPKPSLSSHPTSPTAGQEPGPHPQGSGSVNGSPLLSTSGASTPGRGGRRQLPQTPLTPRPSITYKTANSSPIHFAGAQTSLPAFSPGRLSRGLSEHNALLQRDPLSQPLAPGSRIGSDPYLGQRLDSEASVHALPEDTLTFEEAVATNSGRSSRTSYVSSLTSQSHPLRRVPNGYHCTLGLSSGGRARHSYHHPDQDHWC
T5 sequence (Q02410 whole entry): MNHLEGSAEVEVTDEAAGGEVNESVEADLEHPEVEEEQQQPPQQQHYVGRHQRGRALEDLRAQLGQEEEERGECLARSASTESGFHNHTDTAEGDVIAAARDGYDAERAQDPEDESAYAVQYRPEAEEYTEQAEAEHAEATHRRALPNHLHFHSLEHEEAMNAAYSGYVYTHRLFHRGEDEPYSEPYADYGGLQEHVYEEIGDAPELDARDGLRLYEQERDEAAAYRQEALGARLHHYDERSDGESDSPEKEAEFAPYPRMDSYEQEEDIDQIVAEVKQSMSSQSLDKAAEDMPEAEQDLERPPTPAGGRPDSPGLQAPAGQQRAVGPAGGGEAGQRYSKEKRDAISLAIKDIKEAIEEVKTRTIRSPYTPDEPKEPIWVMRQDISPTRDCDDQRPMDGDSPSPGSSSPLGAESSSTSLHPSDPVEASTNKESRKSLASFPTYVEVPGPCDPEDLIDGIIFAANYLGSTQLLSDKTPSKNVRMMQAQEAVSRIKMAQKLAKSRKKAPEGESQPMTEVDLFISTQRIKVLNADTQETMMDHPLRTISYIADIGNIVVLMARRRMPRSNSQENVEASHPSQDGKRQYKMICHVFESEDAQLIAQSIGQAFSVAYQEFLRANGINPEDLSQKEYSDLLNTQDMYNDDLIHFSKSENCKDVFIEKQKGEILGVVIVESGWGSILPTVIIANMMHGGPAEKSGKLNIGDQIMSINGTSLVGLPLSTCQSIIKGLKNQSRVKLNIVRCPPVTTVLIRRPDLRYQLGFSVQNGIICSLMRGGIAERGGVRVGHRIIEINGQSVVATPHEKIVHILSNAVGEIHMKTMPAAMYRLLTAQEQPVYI
Dual specificity protein phosphatase 3, sequence (P51452 whole entry): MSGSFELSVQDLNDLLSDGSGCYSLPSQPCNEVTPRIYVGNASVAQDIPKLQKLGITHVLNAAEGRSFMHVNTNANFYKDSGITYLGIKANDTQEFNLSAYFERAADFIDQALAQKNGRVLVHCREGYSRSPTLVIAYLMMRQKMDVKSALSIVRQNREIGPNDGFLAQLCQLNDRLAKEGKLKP

`COc1cc(C(=O)O)cc(NC(=O)c2cccs2)c1OC`: the IC50 was > 100 µM (not active) in [1] and > 100 µM (inactive) in assay [2].

For the molecule `CN(C)S(=O)(=O)c1ccc(N2CCCC2)c(C(=O)N2CCN(c3cccc(Cl)c3)CC2)c1`, the EC50 was > 32 µM (inactive) in [3], > 32 µM (inactive) at Cannabinoid receptor 1 [4], 0.608 µM (active) in [5] and > 32 µM (inactive) at Cannabinoid receptor 2 [9]. Also, the figures for the IC50 (at Cannabinoid receptor 1 [6]; at Cannabinoid receptor 2 [7]; in assay [8]) were 27.1 µM (inactive), > 32 µM (inactive) and > 32 µM (inactive), respectively.

In the case of `CCc1ccc(S(=O)(=O)Nc2ccc(Br)cn2)cc1`, the AC50 in the assay with Vibrio harveyi [10] was 8.16 µM (active); with Vibrio harveyi [11], 3.22 µM (active).

As for `COc1cc(OC)c(C2CC(=O)N3CN(c4ccccc4)CSC3=C2C#N)cc1OC` (stereo unspecified), the IC50 in [12] is 6.01 µM (active); in assay [13], > 80 µM (inactive); in [15] it was > 50 µM (inactive). Besides, the EC50 in [14] is > 50 µM (active).

In the case of `Fc1ccc(CNC(=S)c2ccc(Br)cc2)cc1C(F)(F)F`, the IC50 in assay [16] is 19.3 µM (active); in [17], 23.4 µM (active).

With `O=C(Cc1ccc(Cl)cc1)Nc1ncc([N+](=O)[O-])s1`, the EC50 on Mucolipin-3 was > 29.9 µM (not active); on Ion channel NompC it was > 29.9 µM (inactive); in [20] it was > 60 µM (inconclusive); in the assay on HEK293 [21] it was 4.23 µM (active); in assay [22], 0.589 µM (active). In addition, the IC50 with HEK293 [18] is 10.9 µM (inactive); in [19] it was < 0.4 µM (not active); in the assay on HEK293 [23], 9.12 µM (active); in the assay on HEK293 [24], > 20 µM (inactive).
